Results taken from ChEMBL document CHEMBL1201862, “PubChem BioAssay data set” (2004).
Activity calls are given as the source filed them.

What was measured:
[1] = target: Voltage-gated inwardly rectifying potassium channel KCNH2 (Homo sapiens, UniProt Q12809); settings: Potency;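 also: confirmatory quantitative high-throughput screen measuring inhibition of hERG channel activity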
[2] = target: Cystic fibrosis transmembrane conductance regulator/Golgi-associated PDZ and coiled-coil motif-containing protein (Homo sapiens, UniProt P13569+Q9HD26); assay: potency against CAL PDZ-peptide interaction – biochemical, fluorescence polarization, Cerulean-tagged CAL PDZ, cherry-picks, dose response (AID 504773)
[3] = target: G-protein coupled receptor 55 (Homo sapiens, UniProt Q9Y2T6); assay: selective activators of receptor GPR55 – imaging, U2OS cells, beta-arrestin-GFP redistribution, primary screen (AID 1961); assay type: functional
[4] = target: Exodeoxyribonuclease V (Escherichia coli (strain K12), UniProt P04993+P07648+P08394); assay: RecBCD inhibition via phage-restricted bacterial growth – absorbance, V66 E. coli, mutant T4 phage, counter-screen for AddAB inhibitor project, dose response (AID 492957); assay type: functional, cell-based, Escherichia coli str. K-12 substr. MG1655
[5] = target: Beta-adrenergic receptor kinase 1 (Homo sapiens, UniProt P25098); assay: aptamer displacement from bead-bound GRK2 – biochemical, cherry pick 1, bead flow cytometry, dose response (AID 504500)
[6] = tested on: INS1; assay: INS-1E survival protection against cytokine death – cell-based, luminescence, retest, dose response (AID 449756); assay type: functional; settings: Rattus norvegicus;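 also: cell death triggered by IL-1 beta plus TNF-alpha plus IFN-gamma mixture; protective hits raise ATP signal compared with cytokine alone wells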
[7] = Counterscreen for AddAB inhibitors: absorbance-based bacterial cell-based high throughput dose response assay for inhibitors of bacterial viability. [Related pubchem assays (depositor defined):AID435030, AID449728, AID449731, AID488942, AID488955, AID488956]; assay type: functional
[8] = target: Hexokinase-1 (Homo sapiens, UniProt P19367); assay: hexokinase 1 activity inhibitors, potency – biochemical, set 2, resazurin fluorescence coupled readout, selectivity assay for HKDC1 inhibitor project, SAR follow-up (AID 588356); assay type: functional
[9] = target: T1, Hexokinase HKDC1 (Homo sapiens, UniProt Q2TB90); assay: analog inhibition of human HKDC1 activity – biochemical, set 2, SAR follow-up (AID 588355); assay type: functional
T1 sequence (Q2TB90 whole entry): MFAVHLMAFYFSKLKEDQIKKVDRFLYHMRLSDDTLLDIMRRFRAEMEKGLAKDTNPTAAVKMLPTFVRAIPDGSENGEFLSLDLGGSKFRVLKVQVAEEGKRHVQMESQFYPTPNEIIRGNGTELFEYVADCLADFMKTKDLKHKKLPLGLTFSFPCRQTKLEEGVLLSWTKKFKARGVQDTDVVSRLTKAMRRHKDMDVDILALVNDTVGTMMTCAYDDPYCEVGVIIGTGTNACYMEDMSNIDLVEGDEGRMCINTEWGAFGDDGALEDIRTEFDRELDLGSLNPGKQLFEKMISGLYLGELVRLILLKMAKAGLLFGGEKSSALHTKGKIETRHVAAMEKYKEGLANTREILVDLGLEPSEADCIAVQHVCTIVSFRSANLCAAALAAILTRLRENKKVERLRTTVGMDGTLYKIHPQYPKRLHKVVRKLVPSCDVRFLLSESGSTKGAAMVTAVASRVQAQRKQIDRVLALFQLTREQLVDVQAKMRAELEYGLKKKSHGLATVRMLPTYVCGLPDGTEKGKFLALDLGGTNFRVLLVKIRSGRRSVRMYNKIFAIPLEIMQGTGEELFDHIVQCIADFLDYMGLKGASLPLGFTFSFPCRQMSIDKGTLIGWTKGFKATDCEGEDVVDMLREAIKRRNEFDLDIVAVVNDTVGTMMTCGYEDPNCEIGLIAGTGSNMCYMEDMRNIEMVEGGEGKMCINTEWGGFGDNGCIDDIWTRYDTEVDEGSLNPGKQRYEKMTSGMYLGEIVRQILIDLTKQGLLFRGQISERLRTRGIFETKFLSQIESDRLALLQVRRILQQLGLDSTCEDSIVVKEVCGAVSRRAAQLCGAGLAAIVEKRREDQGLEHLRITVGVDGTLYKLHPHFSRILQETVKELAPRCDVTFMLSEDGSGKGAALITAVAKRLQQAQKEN

[10] = tested on: Streptococcus sp. 'group A'; assay: Streptococcus pyogenes SK(-)GAS viability under kanamycin – luminescence, BacTiterGlo, confirmation, counter-screen for streptokinase expression inhibitor project, dose response (AID 1900); assay type: functional, organism-based
[11] = cells; assay type: functional
[12] = tested on: Escherichia coli; assay: microbe, parasite or virus in culture
[13] = tested on: Escherichia coli; assay: microbe, parasite or virus in culture; remark: listed apart in the source
[14] = target: T2, DNA repair and recombination protein RAD54-like (Homo sapiens, UniProt Q92698); assay: RAD54 Holliday junction migration blockers – biochemical, fluorescence, cherry-picked samples, dose series, confirmation (AID 651657); assay type: functional
T2 sequence (Q92698 whole entry): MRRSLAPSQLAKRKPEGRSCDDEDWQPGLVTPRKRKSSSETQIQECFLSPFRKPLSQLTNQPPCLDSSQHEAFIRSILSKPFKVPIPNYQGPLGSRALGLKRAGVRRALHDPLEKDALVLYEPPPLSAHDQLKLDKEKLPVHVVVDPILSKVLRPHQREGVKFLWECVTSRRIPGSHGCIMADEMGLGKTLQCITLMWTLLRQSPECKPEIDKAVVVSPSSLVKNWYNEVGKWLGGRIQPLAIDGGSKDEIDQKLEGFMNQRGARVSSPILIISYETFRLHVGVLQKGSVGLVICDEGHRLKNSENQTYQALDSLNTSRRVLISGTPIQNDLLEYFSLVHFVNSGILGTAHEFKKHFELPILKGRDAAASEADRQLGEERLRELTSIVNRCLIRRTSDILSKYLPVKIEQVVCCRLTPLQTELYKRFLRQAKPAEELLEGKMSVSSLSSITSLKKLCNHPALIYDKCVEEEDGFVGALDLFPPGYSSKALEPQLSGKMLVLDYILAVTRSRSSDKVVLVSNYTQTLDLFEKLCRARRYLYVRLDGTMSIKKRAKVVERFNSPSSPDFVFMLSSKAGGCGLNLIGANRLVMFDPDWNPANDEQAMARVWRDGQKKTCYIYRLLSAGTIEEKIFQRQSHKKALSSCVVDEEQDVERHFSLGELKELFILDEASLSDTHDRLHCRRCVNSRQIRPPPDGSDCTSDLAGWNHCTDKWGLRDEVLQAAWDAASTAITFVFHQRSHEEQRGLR

[15] = tested on: Streptococcus; assay: GAS UMAA2166 growth inhibition – luminescence, BacTiterGlo, counter-screen for streptokinase expression inhibitor project, dose response (AID 1915); assay type: functional, organism-based;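 also: potency for reduction of bacterial viability or growth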
[16] = tested on: Jurkat; assay: SAR Analysis of small molecule inhibitors of T-cell specific antigen receptor-induced NF-kB activation in a Jurkat cell line using a luminescence assay - Set 2. [Related pubchem assays (depositor defined):AID435003, AID435012, AID465]; assay type: functional, cell-based; settings: Homo sapiens
[17] = tested on: HEK293; assay: SAR Analysis of small molecule inhibitors of T-cell specific antigen receptor-induced NF-kB activation in a HEK-293T cell line using a luminescence assay - Set 2. [Related pubchem assays (depositor defined):AID435003, AID435012, AID489026]; assay type: functional, cell-based; settings: Homo sapiens
[18] = tested on: HEK293; assay: HEK293T cell viability loss, resazurin readout – resazurin fluorescence, cytotoxicity control for NF-kB activator project, SAR follow-up (AID 493251); assay type: functional, cell-based; settings: Homo sapiens
[19] = target: Dual specificity tyrosine-phosphorylation-regulated kinase 1A (Rattus norvegicus, UniProt Q63470); assay type: biochemical, Homo sapiens
[20] = PAR1 agonist-induced platelet activation inhibition – cell-based, fluorescence, flow cytometry, human platelets, dose response (AID 2511); assay type: functional
[21] = blockers of SFLLRN-triggered platelet ATP secretion – cell-based, human platelets, luminescence, dry powder, dose response (AID 493100); assay type: functional
[22] = Luminescence Cell-Based Dose Response Follow up to Identify Inhibitors of Platelet Dense Granule Release. [Related pubchem assays (depositor defined):AID1663, AID1678, AID2398]; assay type: functional
[23] = target: T3, Dual specificity protein phosphatase 6 (Rattus norvegicus, UniProt Q64346); assay: inhibition of rat DUSP6 enzyme activity – biochemical, in vitro, primary screen (AID 425)
T3 sequence (Q64346 whole entry): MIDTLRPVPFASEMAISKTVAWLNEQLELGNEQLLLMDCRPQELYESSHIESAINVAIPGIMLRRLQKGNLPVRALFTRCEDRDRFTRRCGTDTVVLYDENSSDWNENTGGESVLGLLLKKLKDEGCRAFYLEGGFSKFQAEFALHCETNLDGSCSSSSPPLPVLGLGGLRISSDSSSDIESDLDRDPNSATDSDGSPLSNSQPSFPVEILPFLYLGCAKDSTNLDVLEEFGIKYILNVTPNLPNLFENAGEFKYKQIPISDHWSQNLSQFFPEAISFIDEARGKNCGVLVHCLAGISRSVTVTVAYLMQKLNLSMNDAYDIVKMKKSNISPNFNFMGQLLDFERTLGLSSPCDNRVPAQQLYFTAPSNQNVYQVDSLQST

[24] = CCR5-tropic HIV-1 fusion blockers – cell-based, CCR5-tropic Env, dose response (AID 2279); assay type: functional
[25] = target: Genome polyprotein (dengue virus type 2, UniProt P29990); assay: flavivirus cap methylation enzyme inhibition – biochemical, confirmation dose response, primary screen (AID 588689); assay type: functional
[26] = target: T4, Dual specificity protein phosphatase 3 (Homo sapiens, UniProt P51452); assay: VHR1 phosphatase inhibitors, biochemical (AID 1878)
[27] = target: T5, Small ubiquitin-related modifier 1 (Homo sapiens, UniProt P63165); assay: SUMO1 protein-protein binding blockers, potency – biochemical, FRET, dose response (AID 624383); assay type: functional; settings: read-out: IC50_Mean
[28] = target: T5, Small ubiquitin-related modifier 1; assay: SUMO1 protein interaction blockers, potency – biochemical, fluorescence polarization, uHTS hits, dose response (AID 624382); assay type: functional; settings: read-out: IC50_Mean
[29] = target: DNA (cytosine-5)-methyltransferase 1 (Homo sapiens, UniProt P26358); assay: inhibition of DNA methylation by DNMT1 – biochemical, fluorescent molecular beacon, confirmation (AID 602386); assay type: functional
[30] = target: Eukaryotic translation initiation factor 4E (Mus musculus, UniProt P63073); assay: blockers of eIF4G binding by eIF4E – biochemical, TR-FRET, dose response (AID 855); assay type: functional;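 also: potency for disrupting eIF4E binding to eIF4GI seen as loss of FRET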
[31] = tested on: Vero; assay: viability of Vero cells under compound – cytotoxicity control for flavivirus capping enzyme inhibitors (AID 588742); assay type: functional; settings: Chlorocebus sabaeus
[32] = target: Envelope glycoprotein gp160 (Human immunodeficiency virus 1, UniProt Q6QLK5); assay: cell-free HIV fusion peptide-binding blockers – biochemical, uHTS, fluorescence dequenching, […] (AID 1986)
[33] = target: Nonstructural protein 1 (Influenza A virus, UniProt Q194T2); assay type: functional, Influenza A virus (A/California/07/2009(H1N1))
[34] = target: T4, Dual specificity protein phosphatase 3; assay: VHR1 phosphatase inhibitors, primary screen, biochemical, absorbance, uHTS (AID 1654)
[35] = target: DNA topoisomerase (Yersinia pestis, UniProt A0A2S9PM60); assay: Yersinia topoisomerase I cleavage product accumulation – biochemical, cherry-pick, dose response (AID 588525)
[36] = tested on: A-375; assay: MITF: Counter assay: A375 proliferation Measured in Cell-Based System Using Plate Reader - 2084-03_Inhibitor_Dose_DryPowder_Activity. [Related pubchem assays (depositor defined):AID488944]; assay type: functional; settings: Homo sapiens
[37] = tested on: A-375; assay: proliferation inhibition in MITF-low A375 cells – cell-based, cherry-pick samples, set 2, counter-screen for MITF modulator project, dose response (AID 540335); assay type: functional; settings: Homo sapiens

T4 sequence (P51452 whole entry): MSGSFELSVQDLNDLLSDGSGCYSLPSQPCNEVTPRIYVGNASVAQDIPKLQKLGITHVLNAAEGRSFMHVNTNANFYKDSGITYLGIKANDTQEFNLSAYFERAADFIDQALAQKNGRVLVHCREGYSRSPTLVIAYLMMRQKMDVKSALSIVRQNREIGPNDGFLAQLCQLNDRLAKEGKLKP
T5 sequence (P63165 whole entry): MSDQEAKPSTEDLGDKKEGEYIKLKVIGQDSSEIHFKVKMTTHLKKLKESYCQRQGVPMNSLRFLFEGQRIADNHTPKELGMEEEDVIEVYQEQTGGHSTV
Sequence of DNA (cytosine-5)-methyltransferase 1 (P26358 whole entry): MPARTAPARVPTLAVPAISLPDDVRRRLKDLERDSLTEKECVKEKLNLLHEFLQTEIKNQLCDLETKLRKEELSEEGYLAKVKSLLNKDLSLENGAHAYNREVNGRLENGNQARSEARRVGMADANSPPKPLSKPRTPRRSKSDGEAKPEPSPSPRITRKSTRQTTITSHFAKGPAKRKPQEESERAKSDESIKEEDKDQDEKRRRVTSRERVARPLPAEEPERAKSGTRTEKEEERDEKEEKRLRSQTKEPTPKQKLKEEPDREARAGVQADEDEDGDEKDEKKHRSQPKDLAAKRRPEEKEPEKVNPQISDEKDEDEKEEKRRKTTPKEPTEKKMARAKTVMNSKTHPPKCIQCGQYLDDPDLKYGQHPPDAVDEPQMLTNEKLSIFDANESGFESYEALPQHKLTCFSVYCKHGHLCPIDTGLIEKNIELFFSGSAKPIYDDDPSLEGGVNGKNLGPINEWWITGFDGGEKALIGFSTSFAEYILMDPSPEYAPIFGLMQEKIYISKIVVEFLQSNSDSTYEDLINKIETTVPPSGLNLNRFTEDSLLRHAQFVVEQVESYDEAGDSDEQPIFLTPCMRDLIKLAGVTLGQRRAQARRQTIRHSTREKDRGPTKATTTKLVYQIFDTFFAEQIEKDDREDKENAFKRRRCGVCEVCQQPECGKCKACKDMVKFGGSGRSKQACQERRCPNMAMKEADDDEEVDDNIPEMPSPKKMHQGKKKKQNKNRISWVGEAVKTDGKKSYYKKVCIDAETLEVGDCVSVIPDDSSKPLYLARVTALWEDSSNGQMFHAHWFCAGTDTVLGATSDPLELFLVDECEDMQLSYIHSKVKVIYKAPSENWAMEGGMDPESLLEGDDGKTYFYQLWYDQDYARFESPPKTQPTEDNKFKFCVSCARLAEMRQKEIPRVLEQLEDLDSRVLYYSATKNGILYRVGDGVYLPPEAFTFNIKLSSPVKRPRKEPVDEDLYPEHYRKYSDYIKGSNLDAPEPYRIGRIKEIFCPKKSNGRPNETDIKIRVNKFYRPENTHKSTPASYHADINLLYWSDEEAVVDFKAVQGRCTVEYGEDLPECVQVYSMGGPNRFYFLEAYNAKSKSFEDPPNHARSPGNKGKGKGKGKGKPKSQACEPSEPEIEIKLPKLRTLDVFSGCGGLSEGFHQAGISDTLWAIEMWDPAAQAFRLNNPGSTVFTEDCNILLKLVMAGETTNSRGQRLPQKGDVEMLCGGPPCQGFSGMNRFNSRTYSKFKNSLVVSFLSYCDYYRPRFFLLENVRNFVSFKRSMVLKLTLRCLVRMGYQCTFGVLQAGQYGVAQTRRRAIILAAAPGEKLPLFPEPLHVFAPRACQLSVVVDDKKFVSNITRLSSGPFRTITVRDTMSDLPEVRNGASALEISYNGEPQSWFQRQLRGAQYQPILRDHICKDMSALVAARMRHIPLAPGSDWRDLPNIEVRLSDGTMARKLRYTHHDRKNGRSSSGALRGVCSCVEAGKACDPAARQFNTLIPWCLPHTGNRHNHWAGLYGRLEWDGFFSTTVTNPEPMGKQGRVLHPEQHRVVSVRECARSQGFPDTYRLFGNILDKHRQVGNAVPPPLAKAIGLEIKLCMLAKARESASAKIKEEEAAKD
Sequence of Nonstructural protein 1 (Q194T2 whole entry): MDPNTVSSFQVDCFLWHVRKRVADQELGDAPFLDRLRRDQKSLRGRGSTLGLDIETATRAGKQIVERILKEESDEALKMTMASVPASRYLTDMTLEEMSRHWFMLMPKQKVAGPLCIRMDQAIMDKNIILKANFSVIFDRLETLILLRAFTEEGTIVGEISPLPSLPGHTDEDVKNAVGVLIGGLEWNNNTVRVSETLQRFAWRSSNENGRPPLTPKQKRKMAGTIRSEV
Sequence of Eukaryotic translation initiation factor 4E (P63073 whole entry): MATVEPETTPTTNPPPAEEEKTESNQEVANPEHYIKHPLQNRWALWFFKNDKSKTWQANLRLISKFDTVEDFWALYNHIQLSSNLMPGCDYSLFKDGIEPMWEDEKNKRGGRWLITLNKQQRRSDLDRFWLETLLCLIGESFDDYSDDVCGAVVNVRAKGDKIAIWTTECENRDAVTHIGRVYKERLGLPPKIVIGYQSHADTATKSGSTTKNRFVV
Sequence of Hexokinase-1 (P19367 whole entry): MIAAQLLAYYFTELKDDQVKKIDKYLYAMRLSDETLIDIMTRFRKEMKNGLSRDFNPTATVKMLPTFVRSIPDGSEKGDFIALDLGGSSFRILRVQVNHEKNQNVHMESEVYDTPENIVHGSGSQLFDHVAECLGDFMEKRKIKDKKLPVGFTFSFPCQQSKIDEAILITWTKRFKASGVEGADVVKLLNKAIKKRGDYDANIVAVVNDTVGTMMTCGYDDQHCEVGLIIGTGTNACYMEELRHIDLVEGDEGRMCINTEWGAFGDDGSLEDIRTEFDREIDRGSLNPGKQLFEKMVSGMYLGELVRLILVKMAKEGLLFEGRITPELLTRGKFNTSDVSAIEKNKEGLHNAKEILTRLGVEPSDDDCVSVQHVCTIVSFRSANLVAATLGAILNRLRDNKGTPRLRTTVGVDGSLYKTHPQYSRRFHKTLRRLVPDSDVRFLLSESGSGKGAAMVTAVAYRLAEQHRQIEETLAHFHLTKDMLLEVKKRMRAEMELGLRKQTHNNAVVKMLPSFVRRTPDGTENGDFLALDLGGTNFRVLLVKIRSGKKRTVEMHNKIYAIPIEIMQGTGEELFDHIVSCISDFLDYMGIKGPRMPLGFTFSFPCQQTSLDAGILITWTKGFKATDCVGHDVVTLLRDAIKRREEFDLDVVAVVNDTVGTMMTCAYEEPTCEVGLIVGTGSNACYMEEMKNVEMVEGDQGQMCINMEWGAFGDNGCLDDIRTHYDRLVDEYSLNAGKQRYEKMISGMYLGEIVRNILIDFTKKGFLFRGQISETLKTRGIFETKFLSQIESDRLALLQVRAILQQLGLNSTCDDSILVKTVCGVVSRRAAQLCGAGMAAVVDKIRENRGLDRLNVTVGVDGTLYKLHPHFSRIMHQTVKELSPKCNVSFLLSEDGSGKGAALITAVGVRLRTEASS
Sequence of Voltage-gated inwardly rectifying potassium channel KCNH2 (Q12809 whole entry): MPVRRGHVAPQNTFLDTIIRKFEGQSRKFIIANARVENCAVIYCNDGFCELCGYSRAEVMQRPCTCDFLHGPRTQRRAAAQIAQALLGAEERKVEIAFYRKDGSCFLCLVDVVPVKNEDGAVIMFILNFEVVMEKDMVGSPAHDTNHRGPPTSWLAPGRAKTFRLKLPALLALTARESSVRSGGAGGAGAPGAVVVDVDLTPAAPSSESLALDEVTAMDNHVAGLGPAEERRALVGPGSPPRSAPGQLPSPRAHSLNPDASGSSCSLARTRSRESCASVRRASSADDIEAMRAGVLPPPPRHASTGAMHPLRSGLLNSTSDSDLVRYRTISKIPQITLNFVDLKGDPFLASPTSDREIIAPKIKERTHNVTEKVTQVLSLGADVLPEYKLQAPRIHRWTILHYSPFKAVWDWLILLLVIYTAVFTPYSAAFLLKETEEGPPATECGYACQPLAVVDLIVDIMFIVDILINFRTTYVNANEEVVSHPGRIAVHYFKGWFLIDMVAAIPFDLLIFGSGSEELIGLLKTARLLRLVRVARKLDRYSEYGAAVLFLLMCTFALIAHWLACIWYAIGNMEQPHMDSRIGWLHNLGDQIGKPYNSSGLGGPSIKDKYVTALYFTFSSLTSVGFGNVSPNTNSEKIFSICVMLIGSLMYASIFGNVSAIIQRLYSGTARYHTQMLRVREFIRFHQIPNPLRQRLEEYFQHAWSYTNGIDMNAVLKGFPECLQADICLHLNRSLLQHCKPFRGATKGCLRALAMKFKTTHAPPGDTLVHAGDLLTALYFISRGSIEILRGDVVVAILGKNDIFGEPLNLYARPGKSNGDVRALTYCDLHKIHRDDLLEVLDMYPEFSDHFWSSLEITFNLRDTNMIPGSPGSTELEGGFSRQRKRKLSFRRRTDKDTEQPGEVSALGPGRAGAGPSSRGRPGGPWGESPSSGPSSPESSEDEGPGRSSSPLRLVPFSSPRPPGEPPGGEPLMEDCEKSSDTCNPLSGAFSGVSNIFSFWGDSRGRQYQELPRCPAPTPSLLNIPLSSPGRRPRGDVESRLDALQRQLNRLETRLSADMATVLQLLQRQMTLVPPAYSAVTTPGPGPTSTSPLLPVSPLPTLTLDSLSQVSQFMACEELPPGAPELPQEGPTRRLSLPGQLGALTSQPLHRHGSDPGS
Sequence of G-protein coupled receptor 55 (Q9Y2T6 whole entry): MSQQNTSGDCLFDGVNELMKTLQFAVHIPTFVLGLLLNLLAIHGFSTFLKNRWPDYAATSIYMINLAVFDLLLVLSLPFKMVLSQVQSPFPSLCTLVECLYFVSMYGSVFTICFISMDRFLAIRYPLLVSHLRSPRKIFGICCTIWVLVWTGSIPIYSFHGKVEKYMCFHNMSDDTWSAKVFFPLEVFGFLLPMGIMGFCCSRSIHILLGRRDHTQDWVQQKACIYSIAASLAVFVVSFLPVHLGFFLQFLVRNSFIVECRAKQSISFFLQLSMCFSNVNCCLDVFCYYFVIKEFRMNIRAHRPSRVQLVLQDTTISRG

## O=[N+]([O-])c1cccc(Cl)c1Cl
[1]
  AC50: 50.1 µM (inconclusive)

## O=C(c1ccccc1)c1c2c(cc3sc4ccccc4[n+]13)-c1cccc3cccc-2c13
[2]
  AC50: 72.6 µM (active)
[3]
  EC50: > 32 µM (inactive)
[4]
  IC50: 91.3 µM (inactive)
[5]
  EC50: 0.06 µM (active)
[6]
  AC50: 2.05 µM (active)
[7]
  IC50: 15.1 µM (inactive)

## O=C(NC1C(=O)N(CCN2CCOCC2)c2ccccc21)c1ccccc1 (configuration not stated)
[8]
  IC50: > 80 µM (inactive)
[9]
  IC50: > 80 µM (inactive)

## NC1CCN(c2c(F)cc3c(=O)c(C(=O)O)cn(C4CC4)c3c2Cl)C1 (configuration not stated) [CLINAFLOXACIN]
[10]
  EC50: 0.115 µM (active)
[11]
  IC50: 0.15 µM (active)
[12]
  AC50: 4.49 µM (active)
[13]
  AC50: 0.816 µM (active)
[14]
  AC50: 41.4 µM (active)
[15]
  EC50: 0.142 µM (active)

## O=C(Nc1ccc2c(c1)CCO2)c1ccc([N+](=O)[O-])o1
[16]
  IC50: 33.8 µM (inactive)
[17]
  IC50: 45.6 µM (inactive)
[18]
  IC50: 59.5 µM (inactive)

## c1nc2sc3c(c2c2nnnn12)CCCC3
[19]
  AC50: 63.2 µM (active)

## Cc1ccc(-c2c(C#N)c(N)n(-c3ccc(Cl)cc3)c(=O)c2C#N)cc1
[20]
  EC50: < 3 µM (active)
[21]
  AC50: 20.4 µM (active)
[22]
  EC50: 9.21 µM (active)

## COc1cc(/C=C2\SC(=O)N(Cc3ccc(Cl)cc3)C2=O)cc([N+](=O)[O-])c1O
[23]
  IC50: > 158 µM (not active)
[24]
  IC50: > 50 µM (active)
[25]
  IC50: 67.5 µM (active)
[26]
  IC50: 3.54 µM (active)
[27]
  IC50: 6.99 µM (active)
[28]
  IC50: > 66.6 µM (inactive)
[29]
  IC50: 4.6 µM (active)
[30]
  IC50: 36.7 µM (inactive)
[31]
  CC50: > 40 µM (active)
[32]
  IC50: 14.9 µM (active)
[33]
  IC50: 26.9 µM (active)
[34]
  IC50: 4.68 µM (active)

## CSc1ccccc1OCc1cc(C(=O)NCCCc2ccccc2)no1
[35]
  AC50: 17 µM (active)

## CSC(=N)N/N=C/c1ccc2c(c1)OCO2
[36]
  AC50: > 35 µM (active)
[37]
  AC50: > 35 µM (active)
